The test addresses T1, adenylosuccinate synthetase (AdSS) (Helicobacter pylori, UniProt P56137).
T1 construct: gene purA
Nature of the test: X-ray crystal structure with IMP ([…] A); enzyme inhibition, GTP-competitive, and time-dependent inactivation (IC50^eq […] without GTP). It is filed as biochemical.

T1 sequence (P56137 whole entry): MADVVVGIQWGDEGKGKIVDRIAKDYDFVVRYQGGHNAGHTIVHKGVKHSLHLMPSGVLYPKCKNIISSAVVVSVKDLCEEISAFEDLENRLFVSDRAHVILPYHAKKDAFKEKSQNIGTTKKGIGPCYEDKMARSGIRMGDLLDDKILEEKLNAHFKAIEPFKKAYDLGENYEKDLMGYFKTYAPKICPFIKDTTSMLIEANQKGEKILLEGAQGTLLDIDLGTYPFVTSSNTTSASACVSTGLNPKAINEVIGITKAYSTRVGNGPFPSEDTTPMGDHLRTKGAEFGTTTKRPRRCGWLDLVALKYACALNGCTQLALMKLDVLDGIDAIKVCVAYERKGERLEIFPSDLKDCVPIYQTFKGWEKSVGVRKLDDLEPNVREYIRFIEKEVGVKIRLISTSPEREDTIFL

As to `Cc1ncc(COP(=O)(O)O)c(C=O)c1O` [PLP, pyridoxal 5'-phosphate], the Ki was determined as 6.95 µM.

These data come from paper PMC11571797, “Vitamin B6 inhibits activity of Helicobacter pylori adenylosuccinate synthetase and growth of reference and clinical, antibiotic-resistant H. pylori strains” (Journal of Enzyme Inhibition and Medicinal Chemistry, 2024).
